# Values quoted from earlier work, collected in PubChem BioAssay AID1259409 (Chemical Carcinogenesis Research Information System (CCRIS), 2018).
# Tested on: rodent chemically induced tumor inhibition, incidence and multiplicity
# Assay: CCRIS tumor inhibitor studies
# Details: Dose [Inhibitor]: 0
smiles,measurement,setting,value
CC1=C[C@H]2O[C@@H]3[C@H](O)[C@@H](O)[C@](C)([C@@]2(CO)[C@H](O)C1=O)[C@]31CO1,"tumour outcome (control, treated, inhibition, significance)","6 PPM IN DIET BEGINNING 6 WK POST CARCINOGEN DOSE AND CONTINUING FOR 65 WK (STUDY DURATION: 65 WK), Route [Inhibitor]: ORAL, Species: MOUSE, Strain/Sex: B6C3F1/FEMALE, Target Tissue: Type of Lesion: LIVER: TUMOR, Dose [Carcinogen]: 6 MG/KG ONCE, Promoter: NONE USED","8/26 (31%), 3/15 (20%), 35%, not significant"
same,"tumour outcome (control, treated, inhibition, significance)","6 PPM IN PELLET DIET FOR 1 YR BEGINNING 7 WK POST CARCINOGEN (STUDY DURATION: 60 WK), Route [Inhibitor]: ORAL, Species: MOUSE, Strain/Sex: B6C3F1/FEMALE, Target Tissue: Type of Lesion: LIVER: HEPATOCELLULAR ADENOMA, Dose [Carcinogen]: 6 MG/KG ONCE","6/26 (23%), 1/15 (7%), 70%, not calculated"
same,"tumour outcome (control, treated, inhibition, significance)","6 PPM IN PELLET DIET FOR 1 YR BEGINNING 7 WK POST CARCINOGEN (STUDY DURATION: 60 WK), Route [Inhibitor]: ORAL, Species: MOUSE, Strain/Sex: B6C3F1/FEMALE, Target Tissue: Type of Lesion: LIVER: HEPATOCELLULAR TUMOR, Dose [Carcinogen]: 6 MG/KG ONCE","8/26 (31%), 3/15 (20%), 35%, not significant"
same,"tumour outcome (control, treated, inhibition, significance)","12 PPM IN DIET BEGINNING 6 WK POST CARCINOGEN DOSE AND CONTINUING FOR 65 WK (STUDY DURATION: 65 WK), Route [Inhibitor]: ORAL, Species: MOUSE, Strain/Sex: B6C3F1/FEMALE, Target Tissue: Type of Lesion: LIVER: TUMOR, Dose [Carcinogen]: 6 MG/KG ONCE, Promoter: NONE USED","8/26 (31%), 0/19 (0%), 100%, p<0.01"
same,"tumour outcome (control, treated, inhibition, significance)","12 PPM IN DIET BEGINNING 6 WK POST CARCINOGEN DOSE AND CONTINUING FOR 65 WK (STUDY DURATION: 65 WK), Route [Inhibitor]: ORAL, Species: MOUSE, Strain/Sex: B6C3F1/MALE, Target Tissue: Type of Lesion: LIVER: TUMOR, Dose [Carcinogen]: 6 MG/KG ONCE, Promoter: NONE USED","19/19 (100%), 18/18 (100%), 0%, not significant"
same,"tumour outcome (control, treated, inhibition, significance)","12 PPM IN DIET FOR 1 YR BEGINNING 7 WK POST CARCINOGEN (STUDY DURATION: 60 WK), Route [Inhibitor]: ORAL, Species: MOUSE, Strain/Sex: B6C3F1/MALE, Target Tissue: Type of Lesion: LIVER: HEPATOCELLULAR CARCINOMA, Dose [Carcinogen]: 6 MG/KG ONCE","17/19 (89%), 15/18 (83%), 7%, not calculated"
same,"tumour outcome (control, treated, inhibition, significance)","12 PPM IN PELLET DIET FOR 1 YR BEGINNING 7 WK POST CARCINOGEN (STUDY DURATION : 60 WK), Route [Inhibitor]: ORAL, Species: MOUSE, Strain/Sex: B6C3F1/FEMALE, Target Tissue: Type of Lesion: LIVER: HEPATOCELLULAR ADENOMA, Dose [Carcinogen]: 6 MG/KG ONCE","6/26 (23%), 0/19 (0%), 100%, not calculated"
same,"tumour outcome (control, treated, inhibition, significance)","12 PPM IN PELLET DIET FOR 1 YR BEGINNING 7 WK POST CARCINOGEN (STUDY DURATION : 60 WK), Route [Inhibitor]: ORAL, Species: MOUSE, Strain/Sex: B6C3F1/FEMALE, Target Tissue: Type of Lesion: LIVER: HEPATOCELLULAR CARCINOMA, Dose [Carcinogen]: 6 MG/KG ONCE","1/26 (4%), 0/19 (0%), 100%, not calculated"
same,"tumour outcome (control, treated, inhibition, significance)","12 PPM IN PELLET DIET FOR 1 YR BEGINNING 7 WK POST CARCINOGEN (STUDY DURATION : 60 WK), Route [Inhibitor]: ORAL, Species: MOUSE, Strain/Sex: B6C3F1/FEMALE, Target Tissue: Type of Lesion: LIVER: HEPATOCELLULAR TUMOR, Dose [Carcinogen]: 6 MG/KG ONCE","8/26 (31%), 0/19 (0%), 100%, p<0.01"
same,"tumour outcome (control, treated, inhibition, significance)","12 PPM IN PELLET FOR 1 YR BEGINNING 7 WK POST CARCINOGEN (STUDY DURATION: 60 WK), Route [Inhibitor]: ORAL, Species: MOUSE, Strain/Sex: B6C3F1/MALE, Target Tissue: Type of Lesion: LIVER: HEPATOCELLULAR TUMOR, Dose [Carcinogen]: 6 MG/KG ONCE","19/19 (100%), 18/18 (100%), 0%, not significant"
CC[C@H]1OC(=O)[C@H](C)[C@@H](O[C@H]2C[C@@](C)(OC)[C@@H](O)[C@H](C)O2)[C@H](C)[C@@H](O[C@@H]2O[C@H](C)C[C@H](N(C)C)[C@H]2O)[C@](C)(OC)C[C@@H](C)C(=O)[C@H](C)[C@@H](O)[C@]1(C)O,"tumour outcome (control, treated, inhibition, significance)","Carcinogen: N-NITROSOBIS(2-HYDROXYPROPYL)AMINE, 53609-64-6, 0.02% IN DIET FOR 8 WK BEGINNING POST CARCINOGEN TREATMENT (STUDY DURATION: 20 WK), Route [Inhibitor]: ORAL, Species: RAT, Strain/Sex: WISTAR/MALE, Target Tissue: Type of Lesion: LUNG: ADENOCARCINOMA, Dose [Carcinogen]: 2,000 PPM IN DRINKING WATER FOR 12 WK, Promoter: NONE","60%, 38%, 37%, not calculated"
same,"tumour outcome (control, treated, inhibition, significance)","Carcinogen: N-NITROSOBIS(2-HYDROXYPROPYL)AMINE, 53609-64-6, 0.02% IN DIET FOR 8 WK BEGINNING POST CARCINOGEN TREATMENT (STUDY DURATION: 20 WK), Route [Inhibitor]: ORAL, Species: RAT, Strain/Sex: WISTAR/MALE, Target Tissue: Type of Lesion: LUNG: ADENOMA, Dose [Carcinogen]: 2,000 PPM IN DRINKING WATER FOR 12 WK, Promoter: NONE","70%, 50%, 29%, not calculated"
same,"tumour outcome (control, treated, inhibition, significance)","Carcinogen: N-NITROSOBIS(2-HYDROXYPROPYL)AMINE, 53609-64-6, 0.02% IN DIET FOR 8 WK BEGINNING POST CARCINOGEN TREATMENT (STUDY DURATION: 20 WK), Route [Inhibitor]: ORAL, Species: RAT, Strain/Sex: WISTAR/MALE, Target Tissue: Type of Lesion: LUNG: SQUAMOUS CELL CARCINOMA, Dose [Carcinogen]: 2,000 PPM IN DRINKING WATER FOR 12 WK, Promoter: NONE","20%, 13%, 35%, not calculated"
C=C(C)C1C=CC(C)(O)CC1 (centres undefined),"tumour outcome (control, treated, inhibition, significance)","Carcinogen: BENZO[A]PYRENE, 50-32-8, 20 MG 3/WK FOR 4 WK ON DAYS OTHER THAN THE CARCINOGEN TREATMENT (STUDY DURATION: 20 WK), Route [Inhibitor]: GAVAGE, Species: MOUSE, Strain/Sex: STRAIN-A/FEMALE, Target Tissue: Type of Lesion: FORESTOMACH: TUMOR, Dose [Carcinogen]: 1 MG IN 0.2 ML COTTONSEED OIL 2/WK FOR 4 WK, Promoter: NONE USED","13/19 (68%), 7/14 (50%), 26%, not significant"
